Experimental data published in patent US7015343B2, “Sulphonated dehydrogenated sylvate, the preparation and use” (Shanghai Xingkang Pharmaceuticals Research & Development …, priority 2001, dated 2006).

Legend:
[1] = test system: gastric juice secretion of Pylorus-ligated rats; assay: Gastric juice secretion and acidity of pylorus-ligated rats after oral administration; type: in vivo, Wister rats; set-up: T.AC / MEL (10^3) / MEAH: unit not given here; conditions: for Total volume of gastric juice: 5 hours after pylorus ligation; for Total volume of gastric juice / MEL (10^3) / MEAH: n = 8, X ± S; for Inhibition ratio for total acid amount / Inhibition to gastric juice secretion: versus control group; for MEL (10^3): acid concentration of gastric juice; for MEAH: total acid amount in gastric juice; for T.AC: volume of 0.01 N NaOH to titrate to pH 7, n = 8, X ± S
Procedure: (§1) Wister rats (200–250 g), half were male and half were female, were starved for 48 hours and the pylori were ligated. Immediately after ligation, a suspension or solution of a salt in distilled water was administered orally into the stomachs in an amount of 2.0 ml/Kg; while 0.5% MC of the same volume was given to the control group. After administration of the test salt for 5 hours, the rats were killed. Their cardias were ligated and their stomachs were taken out. The gastric juice was collected into centrifuge tube and centrifuged at 2500 rpm for 10 min, the volume after residue removed was recorded as the total volume of the gastric juice. The acidity of gastric juice and pepsin activity were measured with the supernatant of the gastric juice after centrifuging.
(a) Measurement of the acidity of gastric juice: with 0.5 ml of gastric juice taken exactly, about 20 ml of distilled water added in, it was measured with pH meter. The mixture was titrated to pH 7 with 0.01 N NaOH solution, and the volume of 0.01 N NaOH solution used was recorded. Then, the volume (T.AC) was calculated corresponding to titrating to pH 7 with 0.01 N NaOH solution. Acid concentration of gastric juice (MEL)=(T.AC/2)×1000 Total acid amount in gastric juice (MEAH)=MEL×(total volume of gastric juice/1000) Inhibiting ratio on the secretion of gastric juice %=[(volume of the gastric juice of the control group−volume of the gastric juice of the treatment group)/volume of the gastric juice of the control group]×100% Inhibiting ratio on the total acid amount in gastric juice %=[(MEAH of the control group−MEAH of the treatment group)/MEAH of the control group]×100%

[2] = test system: pepsin; assay: Pepsin activity in gastric juice of pylorus-ligated rats (Mett tube method); type: in vivo, Wister rats; conditions: for activity of pepsin: n = 8, X ± S; for Inhibition ratio for pepsin activity: versus control group
Procedure: as §1
(b) Enzyme assay for pepsin (Mett tube method): 0.5 ml of gastric juice was added exactly into a clean 50 ml flask with a plug, the flask was shaken to get a homogeneous solution, then, 15.0 ml of 0.05 N HCL solution was added in, in the meantime, two 3.0–4.0 cm long Mett tubes were put inside. The flask was plugged, shaken to get a homogeneous solution, left to stand at 37° C. for 24 hours. The length (mm) of the transparent part at the two ends of each Mett tube was measured precisely to get four values. The mean value was based on the four values, and the pepsin activity was calculated. Inhibiting ratio of pepsin activity %=[(pepsin activity of the control group−pepsin activity of the treatment group)/pepsin activity of the control group]×100% Test Result: […]

[3] = test system: KunMing mice; assay: Acute toxicity of NIPWZ, oral administration to mice (LD50, Bliss's method); type: in vivo; conditions: for Death distribution 2 h / Death distribution 4 h / Death distribution 24 h / Death distribution 72 h / Number of death (F:M) / Ratio of death: 10 mice
Procedure: 50 second grade KunMing mice were provided, each weighing 20.0±1.2 g, randomly divided into 5 groups, 10 for each group, 5 male and 5 female. Medicine was administered intra-gastrically by 40 ml/Kg once, the solvent was 0.5% MC. The doses for the 5 groups were: 4480 mg/Kg, 3000 mg/Kg, 2010 mg/Kg, 1350 mg/Kg, 910 mg/Kg, the ratio of any two abutted doses was 1:0.67. […] Wherein the LD50 was determined by Bliss's method.

Salts of Sulfodehydroabietic Acid with Zinc [NIPWZ]
Total volume of gastric juice ([1]; oral 50 mg/Kg): 7.2 ± 2.9 mL | Inhibition ratio for total acid amount ([1]; oral 50 mg/Kg): 52.9% | Inhibition to gastric juice secretion ([1]; oral 50 mg/Kg): 20.9% | MEL (10^3) ([1]; oral 50 mg/Kg): 1.92 ± 1.47 | MEAH ([1]; oral 50 mg/Kg): 13.8 ± 4.2 | T.AC ([1]; oral 50 mg/Kg): 3.83 ± 2.93 | Total volume of gastric juice ([1]; oral 100 mg/Kg): 7.0 ± 3.1 mL | Inhibition ratio for total acid amount ([1]; oral 100 mg/Kg): 47.1% | Inhibition to gastric juice secretion ([1]; oral 100 mg/Kg): 23.1% | MEL (10^3) ([1]; oral 100 mg/Kg): 2.21 ± 1.32 | MEAH ([1]; oral 100 mg/Kg): 15.5 ± 4.1 | T.AC ([1]; oral 100 mg/Kg): 4.41 ± 2.64 | activity of pepsin ([2]; oral 50 mg/Kg): 0.88 ± 0.33 U | Inhibition ratio for pepsin activity ([2]; oral 50 mg/Kg): 40.5% | activity of pepsin ([2]; oral 100 mg/Kg): 0.66 ± 0.34 U | Inhibition ratio for pepsin activity ([2]; oral 100 mg/Kg): 55.4% | Death distribution 2 h ([3]; mice, oral 910 mg/Kg): 0 | Death distribution 4 h ([3]; mice, oral 910 mg/Kg): 0 | Death distribution 24 h ([3]; mice, oral 910 mg/Kg): 0 | Death distribution 72 h ([3]; mice, oral 910 mg/Kg): 0 | Number of death (F:M) ([3]; mice, oral 910 mg/Kg): 0 (0:0) | Ratio of death ([3]; mice, oral 910 mg/Kg): 0% | Death distribution 2 h ([3]; mice, oral 1350 mg/Kg): 0 | Death distribution 4 h ([3]; mice, oral 1350 mg/Kg): 0 | Death distribution 24 h ([3]; mice, oral 1350 mg/Kg): 3 | Death distribution 72 h ([3]; mice, oral 1350 mg/Kg): 1 | Number of death (F:M) ([3]; mice, oral 1350 mg/Kg): 4 (1:3) | Ratio of death ([3]; mice, oral 1350 mg/Kg): 40% | Death distribution 2 h ([3]; mice, oral 2010 mg/Kg): 0 | Death distribution 4 h ([3]; mice, oral 2010 mg/Kg): 0 | Death distribution 24 h ([3]; mice, oral 2010 mg/Kg): 7 | Death distribution 72 h ([3]; mice, oral 2010 mg/Kg): 0 | Number of death (F:M) ([3]; mice, oral 2010 mg/Kg): 7 (5:2) | Ratio of death ([3]; mice, oral 2010 mg/Kg): 70% | Death distribution 2 h ([3]; mice, oral 3000 mg/Kg): 0 | Death distribution 4 h ([3]; mice, oral 3000 mg/Kg): 7 | Death distribution 24 h ([3]; mice, oral 3000 mg/Kg): 1 | Death distribution 72 h ([3]; mice, oral 3000 mg/Kg): 0 | Number of death (F:M) ([3]; mice, oral 3000 mg/Kg): 8 (5:3) | Ratio of death ([3]; mice, oral 3000 mg/Kg): 80% | Death distribution 2 h ([3]; mice, oral 4480 mg/Kg): 7 | Death distribution 4 h ([3]; mice, oral 4480 mg/Kg): 3 | Death distribution 24 h ([3]; mice, oral 4480 mg/Kg): 0 | Death distribution 72 h ([3]; mice, oral 4480 mg/Kg): 0 | Number of death (F:M) ([3]; mice, oral 4480 mg/Kg): 10 (5:5) | Ratio of death ([3]; mice, oral 4480 mg/Kg): 100% | LD50 ([3]; mice, oral administration, Bliss's method): 1728 mg/kg | LD50 as multiple of the clinic dose ([3]; taking 1000 mg/day for a 60 Kg human being): approximately 104 times

Salts of Sulfodehydroabietic Acid with Bismuth [NIPWB]
Total volume of gastric juice ([1]; oral 50 mg/Kg): 6.5 ± 2.5 mL | Inhibition ratio for total acid amount ([1]; oral 50 mg/Kg): 45.7% | Inhibition to gastric juice secretion ([1]; oral 50 mg/Kg): 28.6% | MEL (10^3) ([1]; oral 50 mg/Kg): 2.42 ± 1.79 | MEAH ([1]; oral 50 mg/Kg): 15.9 ± 4.5 | T.AC ([1]; oral 50 mg/Kg): 4.85 ± 3.58 | Total volume of gastric juice ([1]; oral 100 mg/Kg): 7.6 ± 2.9 mL | Inhibition ratio for total acid amount ([1]; oral 100 mg/Kg): 44.4% | Inhibition to gastric juice secretion ([1]; oral 100 mg/Kg): 16.5% | MEL (10^3) ([1]; oral 100 mg/Kg): 2.16 ± 1.65 | MEAH ([1]; oral 100 mg/Kg): 16.3 ± 4.7 | T.AC ([1]; oral 100 mg/Kg): 4.32 ± 3.30 | activity of pepsin ([2]; oral 50 mg/Kg): 0.74 ± 0.61 U | Inhibition ratio for pepsin activity ([2]; oral 50 mg/Kg): 50.0% | activity of pepsin ([2]; oral 100 mg/Kg): 0.36 ± 0.20 U | Inhibition ratio for pepsin activity ([2]; oral 100 mg/Kg): 75.7%
